Data set [1] in a line: Pharmacokinetics of T1249 in rats after a single subcutaneous or intravenous dose. In kind it is in vivo. The following applies: both sexes, Sprague-Dawley, blood, rat; for half-life: read-out: T1/2terminal (converted). As to the method: Each treatment group, consisted of 9 Sprague-Dawley rats (Charles River Laboratories, Wilmington, Del.) per sex. Each member of the group received a single subcutaneous or intravenous dose of T1249 (batch 2 referenced in Example 9/Table 5). […]
Blood samples were collected from test animals over a twelve hour time period from three rats per sex per group at each time point. The time points were 0.5, 1, 2, 4, 6, 8,10, and 12 hours after dose administration.
The blood samples were analyzed using a T1249 PcAb ECLIA assay. T1249 PcAb ECLIA is a noncompetitive, two site immunoassay that utilizes two different preparations of rabbit PcAb specific for T1249. In this assay, T1249 determinations are preformed by first incubating the diluted test sample in a tube that also contains biotin-labeled antibody (preparation A) and ruthenium-labeled antibody (preparation B). In the next step, streptavidin-coated magnetic beads are added to the tube in order to capture the antibody-peptide-antibody immune complexes (sandwiches) that have formed. The mixture is then pumped through a flow-cell in the analyzer, after which an electrical current is applied to […] adjacent to the flow-cell. Light is generated through cyclical oxidation-reduction reactions between the ruthenium metal ions that are conjugated to the detector antibodies and tripropylamine ions that are present in excess in the assay buffer. This light energy is the measured end-point. A sample containing an appreciable amount of T1249 presents a higher signal compared to a sample containing little or no T1249.

For data set [2], the system named is HIV-1. The text has this: The number of stained nuclei can thus be interpreted as equal to the number of infectious virions in the challenge inoculum if there is only one round of infection prior to staining.

≈ marks a conversion by molar mass, not a printed value. Read-outs that look alike come from different tables or passages of the source.

Broadly, the AUC(0-inf) is total exposure, with the tail of the curve extrapolated. A high value points to more exposure. As usually defined, the AUC(0-t) is exposure summed from dosing to a finite time, without extrapolation to infinity. High values mean more exposure, low ones less exposure. The Cmax is the highest concentration seen after dosing. One may read the Tmax as the time at which the peak concentration occurs. In general, IC50 refers to the concentration needed to halve the response being measured. A lower IC50 goes with greater potency in that assay. For orientation: IC90 means the point of the concentration-response curve where the effect stands at 90%. A lower IC90 goes with an effect from little substance. As to `CC[C@H](C)[C@H](NC(=O)[C@H](CCC(N)=O)NC(=O)[C@H](C)NC(=O)[C@H](CCC(N)=O)NC(=O)[C@H](CCC(=O)O)NC(=O)[C@H](CC(C)C)NC(=O)[C@H](CC(C)C)NC(=O)[C@H](C)NC(=O)[C@@H](NC(=O)[C@@H](NC(=O)[C@H](CCCCN)NC(=O)[C@H](CCC(N)=O)NC(=O)[C@H](CCC(=O)O)NC(=O)[C@H](Cc1c[nH]c2ccccc12)NC(=O)[C@H](CCC(=O)O)NC(=O)[C@H](CCC(N)=O)NC(=O)[C@@H](N)Cc1c[nH]c2ccccc12)[C@@H](C)CC)[C@@H](C)O)C(=O)N[C@@H](CCC(N)=O)C(=O)N[C@@H](CCC(N)=O)C(=O)N[C@@H](CCC(=O)O)C(=O)N[C@@H](CCCCN)C(=O)N[C@@H](CC(N)=O)C(=O)N[C@@H](CCC(=O)O)C(=O)N[C@@H](Cc1ccc(O)cc1)C(=O)N[C@@H](CCC(=O)O)C(=O)N[C@@H](CC(C)C)C(=O)N[C@@H](CCC(N)=O)C(=O)N[C@@H](CCCCN)C(=O)N[C@@H](CC(C)C)C(=O)N[C@@H](CC(=O)O)C(=O)N[C@@H](CCCCN)C(=O)N[C@@H](Cc1c[nH]c2ccccc12)C(=O)N[C@@H](C)C(=O)N[C@@H](CO)C(=O)N[C@@H](CC(C)C)C(=O)N[C@@H](Cc1c[nH]c2ccccc12)C(=O)N[C@@H](CCC(=O)O)C(=O)N[C@@H](Cc1c[nH]c2ccccc12)C(=O)N[C@@H](Cc1ccccc1)C(N)=O` [Example T1249], in data set [1] (1.2 mg/kg (SC)), the total exposure AUC(0-inf) was 27600 ng·h/mL, the exposure AUC(0-t) is 27000 ng·h/mL, the Cmax was 6370 ng/mL and the Tmax was found to be 1.09 h. For the same compound, the half-life in data set [1] (1.2 mg/kg (SC)) is 2.02 h. In data set [1] (1.5 mg/kg (IV)), the AUC(0-inf) is 47100 ng·h/mL, the AUC(0-t) is 45600 ng·h/mL, the Cmax was 15700 ng/mL and the half-life was 2.46 h. In addition, in data set [1] (5.0 mg/kg (IV)), the AUC(0-inf) was found to be 120000 ng·h/mL, the AUC(0-t) worked out at 118000 ng·h/mL, the highest level (Cmax) was 46300 ng/mL and the half-life is 1.86 h. Besides, in data set [1] (15 mg/kg (SC)), the total exposure AUC(0-inf) was found to be 110000 ng·h/mL, the AUC(0-t) is 107000 ng·h/mL, the maximum concentration (Cmax) was found to be 21500 ng/mL and the Tmax came to 1.88 h. For the same compound, in data set [1] (15 mg/kg (SC)), the half-life is 2 h. The compound also registered an IC50 in data set [2] (50% reduction in infectious virus titer) of 0.003 µg/mL (≈ 0.601 nM). In addition, the IC90 in data set [2] (90% reduction in infectious titer) turned out to be 0.023 µg/mL (≈ 4.6 nM).

Values taken from patent publication US7084261B2, “Pegylated T1249 polypeptide” (Hoffmann-La Roche Inc., priority 2002, dated 2006).
